{"source": "patent US20260248773A1", "about": "“POTASSIUM CHANNEL BLOCKERS OR DERIVATIVES THEREOF FOR PREVENTING, ALLEVIATING, AND/OR TREATING TISSUE DYSFUNCTION CAUSED BY TOXIC INSULTS” (priority 2022, published 2026)", "key": {"[1]": {"test_system": "chronic spinal cord injury", "settings": "individuals with chronic spinal cord injury; cited from earlier work"}, "[2]": {"test_system": "acute peripheral nerve traumatic crush injuries", "settings": "localized peripheral nerve crush injuries; cited from earlier work"}, "PTX-induced CIPN [3]": {"test_system": "PTX-induced CIPN", "experiment": "Repetitive PTX exposure, delayed 4-AP from week 6 (Example 5)", "type": "in vivo, mice", "settings": "four cycles 35 mg/kg PTX", "protocol": "To examine this question, 16 week old C7BL/6 female mice were given four cycles of PTX treatment at doses of 35 mg/kg PTX (i.p.). Animals were separated into control (saline, i.p.) or treatment group treated with a dose of 4AP 25% of that used in FIGS. 1 and 2 (i.e., 0.5 mg/kg 4-AP daily, i.p., with treatment initiated 6 weeks after the first PTX treatment and when CIPN-related changes were already apparent)."}, "CIS-induced CIPN": {"test_system": "CIS-induced CIPN", "type": "in vivo, mice", "settings": "4-AP 1 mg/kg daily for next six weeks", "protocol": "In these experiments, 16-week-old C7BL/6 female mice were treated with CIS (2.5 mg/kg, once weekly, i.p.) for eight weeks. Animals were then treated with 4-AP (1 mg/kg daily) for the next six weeks (n=4)."}, "PTX-induced CIPN [4]": {"test_system": "PTX-induced CIPN", "experiment": "Repetitive PTX exposure, 4-AP weeks 6-12, follow-up to week 18 (Example 6)", "type": "in vivo, mice", "protocol": "To examine this question, 16 week old C7BL/6 female mice were given four cycles of PTX treatment at doses of 35 mg/kg PTX (i.p.). All animals had functionally demonstrable peripheral neuropathy at six weeks. Animals were then treated with the same dose and treatment regimen of 4-AP used in FIG. 5."}, "[5]": {"test_system": "A549 human lung cancer cell line", "experiment": "4-AP co-applied with cisplatin to cancer cells in vitro (Example 10)", "type": "cell-based", "settings": "5 days, 1 mM 4-AP", "protocol": "To investigate the effects of 4-AP treatment on cancer cells, 4-AP was co-applied with either paclitaxel or cisplatin in dose response curves extending over a >20-fold range to the widely studied E0771 murine breast cancer cell line and the A549 human lung cancer cell line. Cells were exposed to paclitaxel or cisplatin for 5 days in the presence or absence of 1 mM 4-AP. This concentration of 4-AP is typically used for in vitro studies, and greatly exceeds achievable concentrations in vivo. This higher dose would increase the likelihood of detecting protective activity."}, "[6]": {"test_system": "chemotherapy-induced peripheral neuropathy (CIPN) caused by PTX", "protocol": "More specifically, initial studies were conducted on the specific case of CIPN as induced by exposure to PTX. […] 16 week old C73L/6 female mice were given a single dose of 35 mg/kg PTX (i.p.). Animals were separated into control (saline, i.p., n=4) or treatment group (2 mg/kg 4-AP daily, i.p., n=4). Pre-treatment Catwalk scores were compared to 21 days post-PTX injection.\nTo align with clinical treatments, mice were treated with a PTX dose of 35 mg/kg (equivalent to approximately 110 mg/m^2 and within the clinical treatment range) for four cycles, each three weeks apart.\nThe studies also included a 4-AP treatment arm (n=4) with a daily dose of 2 mg/kg 4-AP administered i.p. (as per most previous studies by MN and colleagues).\nTo evaluate detailed functional changes in gait, the CatWalk™ (Noldus Information Technology, Wageningen, The Netherlands) method was implemented.\nSciatic nerve samples were harvested and resin-embedded, sectioned and imaged using transmission electron microscopy. Images were analyzed to calculate markers of peripheral neuropathy, namely: axon counts, fiber size, myelination (g ratio), and circumferential irregularity (FIG. 2)."}, "[7]": {"test_system": "glial fibrillary acidic protein (GFAP)", "experiment": "GFAP immunofluorescence in corpus callosum after PTX with or without 4-AP (Example 9)", "type": "in vivo", "settings": "E0771 tumor-bearing mice; PTX 35 mg/kg day one; 4-AP daily", "protocol": "To determine whether 4-AP treatment can prevent PTX-induced increases in a reactive inflammatory response in the brain, as detected by increased expression of glial fibrillary acidic protein (GFAP), 16-week-old female C57BL/6 mice were inoculated with a triple negative murine breast cancer cell line E0771. When tumors were palpable, the mice were injected with either paclitaxel and water, 4-AP, both, or saline as a control. Paclitaxel (35 mg/kg) was injected on day one and 4-AP and water were injected daily. The mice were sacrificed on day nine and their brains were perfused and harvested. Brains were cryosectioned coronally.\nThe mouse brain sections were stained with anti-GFAP antibodies, followed by a fluorescent secondary, for analysis via immunofluorescence."}, "PTX-induced CIPN [8]": {"test_system": "PTX-induced CIPN", "experiment": "Four PTX injections, concurrent 4-AP (Example 2)", "type": "in vivo, mice", "settings": "4-AP 1 mg/kg daily concurrent", "protocol": "A subset of animals concurrently received 4-AP (1 mg/kg, daily), which was started at the same as the initial PTX treatment and continued throughout. Functional outcome responses were recorded at three-week intervals throughout the study period, and included von Frey monofilament testing, cold plate thermal sensitivity, CatWalk™ gait analysis, and nerve conduction testing. All animals had functionally demonstrable peripheral neuropathy at six weeks."}, "[9]": {"experiment": "Circulating 4-AP levels by HPLC (Example 11)", "type": "in vivo, mice", "settings": "for Circulating 4-AP levels, Amount / concentration at 1 h: 1 hour after i.p. injection, individual mice; for concentration at 1 h: mouse, blood, ip, 1 /g/kg, read-out: Circulating 4-AP levels, Amount", "protocol": "4-AP was injected i.p. at the indicated time points after the beginning of treatment. Mice received PTX on day 0 of the experiment, and half of those mice also were injected with 4-AP at this time, and every day thereafter, at a dosage of 1/g/kg. Blood samples were drawn 3 and 7 days after the beginning of the experiment and were taken 1 hour after the injection of 4-AP. Circulating levels of 4-AP were determined by HPLC analysis."}, "[10]": {"settings": "0.5 mg/kg 4-AP daily started at week 6"}, "[11]": {"settings": "4-AP 0.5 mg/kg/day weeks 6-12, observed to week 18"}, "[12]": {"settings": "4-AP 0.5 mg/kg/day weeks 6-12, 12 and 18 week time points"}, "[13]": {"settings": "3 weeks after one 35 mg/kg PTX, 2 mg/kg 4-AP daily"}, "[14]": {"settings": "single 35 mg/kg PTX i.p., 2 mg/kg 4-AP daily i.p., vs saline control"}, "[15]": {"settings": "single 35 mg/kg PTX, 2 mg/kg 4-AP daily i.p., pre-treatment vs 21 days post-PTX"}, "[16]": {"settings": "mice treated with 4-AP only, 3 days post"}, "[17]": {"settings": "mice treated with PTX + 4-AP, 7 day 1st draw"}}, "note": "Values joined by “and” are separate entries in the source; they are usually repeats but may differ in a detail not shown here. Equal values may be shown once. Read-outs that look alike come from different tables or passages of the source.", "data": [{"compound": "Nc1ccncc1", "note": "[4-AP, 4-aminopyridine]", "values": [{"measurement": "Phase III outcome", "setting": "[1]", "result": "failed to reveal significant benefits"}, {"measurement": "neuropathic pain", "setting": "[1]", "result": "decrease neuropathic pain in some individuals"}, {"measurement": "recovery of thermal hyperalgesia and mechanical allodynia", "setting": "[2]", "result": "enhanced recovery on the specific parameter or thermal hyperalgesia, but not mechanical allodynia"}, {"measurement": "mechanical hypersensitivity, von Frey filament testing", "setting": "PTX-induced CIPN [3]; 0.5 mg/kg 4-AP daily i.p. started at week 6", "result": "benefits of 4-AP treatment began to be observed at Week 12"}, {"measurement": "gait abnormalities, Catwalk analyses", "setting": "PTX-induced CIPN [3]; [10]", "result": "reversed PTX-induced gait abnormalities"}, {"measurement": "jumping behavior, cold-plate stimulus", "setting": "PTX-induced CIPN [3]; [10]", "result": "reversed the symptoms of hypersensitivity to thermal stimuli"}, {"measurement": "nerve conduction (latency, amplitude, velocity)", "setting": "PTX-induced CIPN [3]; [10]", "result": "reversed PTX-induced abnormalities in nerve conduction"}, {"measurement": "structural myelin abnormalities indicative of myelin degeneration", "setting": "PTX-induced CIPN [3]; [10]", "result": "reversed PTX-induced structural myelin abnormalities"}, {"measurement": "body weight", "setting": "CIS-induced CIPN; CIS 2.5 mg/kg once weekly i.p. for eight weeks", "result": "regained normal body weight"}, {"measurement": "hyperalgesia, Von Frey filament analysis", "setting": "CIS-induced CIPN; CIS eight weeks", "result": "restoration of normal levels of sensitivity"}, {"measurement": "nerve impulse amplitude", "setting": "CIS-induced CIPN; CIS eight weeks", "result": "also restored by 4-AP treatment"}, {"measurement": "nerve impulse velocity", "setting": "CIS-induced CIPN; CIS eight weeks", "result": "also restored by 4-AP treatment"}, {"measurement": "nerve conduction latency", "setting": "PTX-induced CIPN [4]; 4-AP 0.5 mg/kg/day weeks 6-12", "result": "reverse PTX-induced abnormalities in nerve conduction latency"}, {"measurement": "Catwalk Regularity Index", "setting": "PTX-induced CIPN [4]; [11]", "result": "benefits observed at Week 9 (i.e, after 3 weeks of 4-AP treatment) and retained for at least 6 weeks after 4-AP treatment ended"}, {"measurement": "durability of benefits on peripheral nerve function", "setting": "PTX-induced CIPN [4]; [11]", "result": "Benefits were still present six weeks after the end of treatment"}, {"measurement": "mechanical hypersensitivity, von Frey filament testing", "setting": "PTX-induced CIPN [4]; [11]", "result": "Benefits began to be observed at Week 12 and were maintained at Weeks 15 and 18"}, {"measurement": "paw lifts and jumping behavior, cold-plate stimulus", "setting": "PTX-induced CIPN [4]; [11]", "result": "durable reversal"}, {"measurement": "G-ratio", "setting": "PTX-induced CIPN [4]; [12]", "result": "restored to normal at the 12 week time point, and these benefits are maintained at the 18 week time point"}, {"measurement": "circularity", "setting": "PTX-induced CIPN [4]; [12]", "result": "restored to normal at the 12 week time point, and these benefits are maintained at the 18 week time point"}, {"measurement": "protection of cancer cells from cisplatin", "setting": "[5]", "result": "does not protect"}, {"measurement": "PTX-induced changes in mitochondrial size and health", "setting": "[6]; 2 mg/kg 4-AP daily i.p.", "result": "decreased PTX-induced changes in mitochondrial size and health"}, {"measurement": "signs of CIPN", "setting": "[6]; 2 mg/kg 4-AP daily i.p. vs saline, n=4", "result": "significantly reduced signs of CIPN"}, {"measurement": "G ratio (axon:myelin area), sciatic nerve", "setting": "[6]; [13]", "result": "better myelinated than the control group"}, {"measurement": "axon circularity, sciatic nerve", "setting": "[6]; [13]", "result": "more regularly structured than the control group"}, {"measurement": "nerve conduction latency", "setting": "[6]; [14]", "result": "significantly smaller increase in latency"}, {"measurement": "nerve conduction velocity", "setting": "[6]; [14]", "result": "significantly smaller decrease in velocity"}, {"measurement": "Catwalk stance phase", "setting": "[6]; [15]", "result": "no significant changes"}, {"measurement": "Catwalk swing phase", "setting": "[6]; [15]", "result": "no significant changes"}, {"measurement": "PTX-induced increased expression of GFAP, corpus callosum", "setting": "[7]", "result": "greatly reduced"}, {"measurement": "mechanical allodynia, Von Frey filament testing", "setting": "PTX-induced CIPN [8]; four 35 mg/kg PTX i.p. at three-week intervals", "result": "no changes from baseline in their response"}, {"measurement": "amplitude and velocity of nerve impulse conduction", "setting": "PTX-induced CIPN [8]; four 35 mg/kg PTX", "result": "prevented the development of these changes"}, {"measurement": "loss of cold sensitivity, paw lifts and hind paw licks on cold plate", "setting": "PTX-induced CIPN [8]; four 35 mg/kg PTX", "result": "prevented the development of these changes"}, {"measurement": "sensitivity to cold, jumps off cold plate", "setting": "PTX-induced CIPN [8]; four 35 mg/kg PTX", "result": "no changes from baseline in this parameter"}, {"measurement": "PTX-induced changes in kidney function (inferred from 4-AP renal clearance)", "setting": "[9]; PTX day 0, 4-AP daily", "result": "prevented PTX-induced changes in kidney function"}, {"measurement": "circulating 4-AP levels, 4-AP alone versus 4-AP+PTX", "setting": "[9]; day 3 or day 7, 1 hour after i.p. injection", "result": "did not differ"}, {"measurement": "Circulating 4-AP levels, Amount", "setting": "[9]; [16]", "result": "0.393 µM and 0.376 µM and 0.486 µM and 0.427 µM"}, {"measurement": "Circulating 4-AP levels, Amount", "setting": "[9]; mice treated with 4-AP only, 7 day 1st draw", "result": "0.376 µM and 0.246 µM and 0.293 µM and 0.140 µM and 0.337 µM"}, {"measurement": "Circulating 4-AP levels, Amount", "setting": "[9]; mice treated with PTX + 4-AP, 3 days post", "result": "0.721 µM and 0.504 µM and 0.312 µM and 0.321 µM and 0.277 µM"}, {"measurement": "Circulating 4-AP levels, Amount", "setting": "[9]; [17]", "result": "0.292 µM and 0.274 µM and 0.236 µM and 0.231 µM"}, {"measurement": "concentration at 1 h", "setting": "[9]; [16]", "result": 298, "unit": "nM"}, {"measurement": "concentration at 1 h", "setting": "[9]; [17]", "result": 352, "unit": "nM"}]}]}
